Results taken from article PMC8621208, “Antiseptic 9-Meric Peptide with Potency against Carbapenem-Resistant Acinetobacter baumannii Infection” (International Journal of Molecular Sciences, 2021).
≈ marks a conversion by molar mass, not a printed value. Like-named read-outs stand apart in the source and are kept apart here.

Columns and labels:
CRAB C0 [1] = experiment: Biofilm assay, crystal violet staining; assay type: cell-based, carbapenem-resistant A. baumannii; settings: 16 h
Protocol: Figure 4 Pro9-3 and its analogs have biofilm inhibition properties against CRAB. The antibiofilm activities of peptides (0–32 μM, 16 h) on (A) A. baumannii and (B) CRAB C0 strains were measured by crystal violet staining and the number of attached cells were read at 595 nm. Melittin, meropenem and imipenem were used as a control. Data are shown as the mean ± SEM (n = 3) and are statistically significant at * p < 0.05; *** p < 0.001; ns, not significant (two-way analysis of variance (ANOVA) with Dunnett’s comparison test).
The effects of peptides on biofilm inhibition of A. baumannii and CRAB C0 strains were performed as described previously. […] After treatment, bacterial cells were fixed with methanol (100%, 15 min) followed by crystal violet staining (0.1% (w/v) in 0.25% (v/v) acetic acid for 1 h). The plates were washed with distilled H2O, allowed to dry, and dissolved in ethanol (100% v/v). The color development representing the degree of biofilm was measured at 595 nm.

CRAB C8 = experiment: microbe, parasite or virus in culture; settings: for MIC: Acinetobacter baumannii, read-out: Minimal Inhibitory Concentration (MIC)
Text: (§1) Escherichia coli KCTC 1682 was obtained from the Korean Collection for Type Cultures (KCTC) (Jeongeup-si, Korea), Acinetobacter baumannii KCCM 40203, Pseudomonas aeruginosa KCCM 11328 from the Korea Culture Center of Microorganisms (KCCM) (Seoul, Korea). Klebsiella pneumoniae NCCP 16054 were obtained from the National Culture Collection for Pathogens (NCCP) (Osong, Korea). Additionally, two carbapenem-resistant E. coli (CREC E1 and E2), 11 carbapenem-resistant A. baumannii (CRAB C0–C10) and two carbapenem-resistant K. pneumoniae (CRKP K1 and K2) were isolated from the patients, who presented symptoms and signs of infection at Korea University Anam Hospital (Seoul, Korea) (IRB registration no. 2020AN0157, 4 March 2021). CRAB C0–C10 have the OXA-23 gene with carbapenem-resistance.
(§2) The minimum inhibitory concentrations (MIC) were determined using broth dilution method. Briefly, all the mentioned bacterial strains were grown overnight at 37 °C by Muller–Hinton (MH) media. […] After 16 h incubation, the bacterial growth was read at 600 nm using a SpectraMAX microplate reader (Molecular Devices, San Jose, CA, USA).

K. pneumoniae = experiment: microbe, parasite or virus in culture; settings: 16 h; for MIC: Klebsiella pneumoniae, read-out: Minimal Inhibitory Concentration (MIC)
Text: as §1, §2

CRAB C1 = experiment: microbe, parasite or virus in culture; settings: for MIC: Acinetobacter baumannii, read-out: Minimal Inhibitory Concentration (MIC)
Text: as §1, §2

CRKP K2 = experiment: MIC, broth dilution; assay type: cell-based, carbapenem-resistant K. pneumoniae; settings: read-out: Minimal Inhibitory Concentration (MIC)
Text: as §1, §2

CRKP K1 = experiment: MIC, broth dilution; assay type: cell-based, carbapenem-resistant K. pneumoniae; settings: read-out: Minimal Inhibitory Concentration (MIC)
Text: as §1, §2

CRAB C5 = experiment: MIC, broth dilution; assay type: cell-based, carbapenem-resistant A. baumannii; settings: read-out: Minimal Inhibitory Concentration (MIC)
Text: as §1, §2

CRAB C4 = experiment: MIC, broth dilution; assay type: cell-based, carbapenem-resistant A. baumannii; settings: read-out: Minimal Inhibitory Concentration (MIC)
Text: as §1, §2

CRAB C3 = experiment: MIC, broth dilution; assay type: cell-based, carbapenem-resistant A. baumannii; settings: read-out: Minimal Inhibitory Concentration (MIC)
Text: as §1, §2

CRAB C9 = experiment: MIC, broth dilution; assay type: cell-based, carbapenem-resistant A. baumannii; settings: read-out: Minimal Inhibitory Concentration (MIC)
Text: as §1, §2

CRAB C10 = experiment: MIC, broth dilution; assay type: cell-based, carbapenem-resistant A. baumannii; settings: read-out: Minimal Inhibitory Concentration (MIC)
Text: as §1, §2

CRAB C0 [2] = experiment: MIC, broth dilution; assay type: cell-based, carbapenem-resistant A. baumannii; settings: read-out: Minimal Inhibitory Concentration (MIC)
Text: as §1, §2

CRAB C6 = experiment: MIC, broth dilution; assay type: cell-based, carbapenem-resistant A. baumannii; settings: read-out: Minimal Inhibitory Concentration (MIC)
Text: as §1, §2

CRAB C7 = experiment: MIC, broth dilution; assay type: cell-based, carbapenem-resistant A. baumannii; settings: read-out: Minimal Inhibitory Concentration (MIC)
Text: as §1, §2

CRAB C2 = experiment: MIC, broth dilution; assay type: cell-based, carbapenem-resistant A. baumannii; settings: read-out: Minimal Inhibitory Concentration (MIC)
Text: as §1, §2

P. aeruginosa = experiment: MIC, broth dilution; assay type: cell-based, Pseudomonas aeruginosa KCCM 11328; settings: Pseudomonas aeruginosa, 16 h, MH media, read-out: Minimal Inhibitory Concentration (MIC)
Text: as §1, §2

A. baumannii = experiment: MIC, broth dilution; assay type: cell-based, Acinetobacter baumannii KCCM 40203; settings: 16 h, MH media, read-out: Minimal Inhibitory Concentration (MIC)
Text: as §1, §2

E. coli = experiment: MIC, broth dilution; assay type: cell-based, Escherichia coli KCTC 1682; settings: Escherichia coli, 16 h, read-out: Minimal Inhibitory Concentration (MIC)
Text: as §1, §2

CREC E2 = experiment: MIC, broth dilution; assay type: cell-based, carbapenem-resistant E. coli; settings: read-out: Minimal Inhibitory Concentration (MIC)
Text: as §1, §2

CREC E1 = experiment: MIC, broth dilution; assay type: cell-based, carbapenem-resistant E. coli; settings: read-out: Minimal Inhibitory Concentration (MIC)
Text: as §1, §2

[3] = test system: standard Gram-negative bacteria and carbapenem-resistant Gram-negative bacteria; experiment: Mean MIC over all bacterial strains (GM) and selective index; assay type: cell-based; settings: read-out: GM (geometric mean of MIC values of all bacterial strains)
Protocol: as §2

LPS = experiment: Limulus amebocyte lysate (LAL) assay, LPS neutralization; assay type: biochemical; settings: 1.6 μM
Protocol: Peptide-mediated LPS neutralization was determined using LAL assay (GenScript, Piscataway, NJ, USA). Briefly, peptides 10 μL each (3.1, 6.3, 12.5, 25, and 50 μM) were allowed to interact with LPS (2 ng/mL) for 10 min at 37 °C. LL-37 was used as a control. A LAL enzyme (10 μL) was added to peptide-LPS complex for 10 min followed by addition of a chromogenic substrate (5 min, 37 °C). The reaction was stopped using color substrates and the absorbance was measured at 545 nm against endotoxin standard. The endotoxin levels are expressed as endotoxin units (EU) per milliliter.

LPS (E. coli O111:B4) = experiment: Peptide-LPS binding, BODIPY-TR-cadaverine displacement assay; settings: 4 μM
Protocol: The binding abilities of the peptides with LPS was analyzed by BODIPY-TR cadaverine (BC, Thermo Fisher Scientific, Waltham, MA, USA)-displacement assay. The probe complex was prepared by mix 5 μg/mL BC with 5 μg/mL LPS (E. coli O111:B4, Sigma-Aldrich, St. Louis, MO, USA) in a 50 mM Tris buffer (pH 7.4) at room temperature for 6 h. Peptides including polymyxin B (PMB) control (1–64 μM) were allowed to interact with LPS–BC mix in a black 96-well plate for 30 min. The relative fluorescence intensity was recorded at an excitation wavelength of 580 nm and emission wavelength of 620 nm using a fluorescence microplate reader (Molecular Devices, San Jose, CA, USA).

intact CRAB C0 = experiment: Depolarization of intact CRAB C0 (diSC3-5); assay type: cell-based, carbapenem-resistant A. baumannii; settings: 4 μM
Protocol: (§3) The depolarization capacity by peptides were measured by using a membrane potential sensitive dye 3,3′-dipropylthiadicarbocyanine iodide (diSC3-5) as previously described using intact CRAB C0. Briefly, CRAB C0 cells were washed using wash buffer (5 mM HEPES, 20 mM glucose, pH 7.4). The cells were resuspended in dilution buffer (5 mM HEPES, 20 mM glucose, 0.1 M KCl, pH 7.4) and then incubated with diSC3-5 dye (1 h). In parallel, spheroplasts of CRAB C0 cells (contains plasma membrane and peptidoglycans) were prepared by damaging outer membrane using osmotic shock, as described previously. Finally, varying concentrations of peptide treated cells, negative control (cells with dye) and positive control (1% triton X-100) were recorded for change in fluorescence using fluorescent spectrophotometer and expressed as percent depolarization.

CRAB C0 spheroplasts = experiment: Cytoplasmic membrane depolarization of CRAB C0 spheroplasts (diSC3-5); assay type: cell-based, carbapenem-resistant A. baumannii; settings: 4 μM
Protocol: as §3

| Molecule | Biofilm inhibition of CRAB C0 (CRAB C0 [1]) | MIC (CRAB C8) [µM] | MIC (K. pneumoniae) [µM] | MIC (CRAB C1) [µM] | MIC (CRKP K2; Klebsiella pneumoniae) [µM] | MIC (CRKP K1; Klebsiella pneumoniae) [µM] | MIC (CRAB C5; Acinetobacter baumannii) [µM] | MIC (CRAB C4; Acinetobacter baumannii) [µM] | MIC (CRAB C3; Acinetobacter baumannii) [µM] | MIC (CRAB C9; Acinetobacter baumannii) [µM] | MIC (CRAB C10; Acinetobacter baumannii) [µM] | MIC (CRAB C0 [2]; Acinetobacter baumannii) [µM] | MIC (CRAB C6; Acinetobacter baumannii) [µM] | MIC (CRAB C7; Acinetobacter baumannii) [µM] | MIC (CRAB C2; Acinetobacter baumannii) [µM] | MIC (P. aeruginosa) [µM] | MIC (A. baumannii; Acinetobacter baumannii) [µM] | MIC (CREC E2; Escherichia coli) [µM] | MIC (CREC E1; Escherichia coli) [µM] | MIC [3] [µM] | also measured |
| --- | --- | --- | --- | --- | --- | --- | --- | --- | --- | --- | --- | --- | --- | --- | --- | --- | --- | --- | --- | --- | --- |
| C[C@@H](O)[C@H]1C(=O)N2C(C(=O)O)=C(S[C@@H]3CN[C@H](C(=O)N(C)C)C3)[C@H](C)[C@H]12 [Meropenem, reference compound] | unable to inhibit | > 128 | < 0.25 | > 128 | > 128 | 64 (≈ 24.5 µg/mL) | > 128 | > 128 | 128 (≈ 49.1 µg/mL) | > 128 | > 128 | 128 (≈ 49.1 µg/mL) | > 128 | 128 (≈ 49.1 µg/mL) | 128 (≈ 49.1 µg/mL) | 1 (≈ 0.383 µg/mL) | 0.5 (≈ 0.192 µg/mL) | 16 (≈ 6.14 µg/mL) | > 128 | 91.9 (≈ 35.2 µg/mL) | MIC (E. coli; E. coli, MH media): 0.25 µM (≈ 0.0959 µg/mL) |
| C[C@@H](O)[C@H]1C(=O)N2C(C(=O)O)=C(SCCN=CN)C[C@H]12 [Imipenem, reference compound] | unable to inhibit | > 128 | < 0.25 | > 128 | > 128 | 32 (≈ 9.58 µg/mL) | 128 (≈ 38.3 µg/mL) | 128 (≈ 38.3 µg/mL) | 128 (≈ 38.3 µg/mL) | > 128 | > 128 | > 128 | 128 (≈ 38.3 µg/mL) | 128 (≈ 38.3 µg/mL) | > 128 | 1 (≈ 0.299 µg/mL) | 1 (≈ 0.299 µg/mL) | 16 (≈ 4.79 µg/mL) | > 128 | 90.3 (≈ 27 µg/mL) | MIC (E. coli): 0.5 µM (≈ 0.15 µg/mL) |
| LL-37 |  |  |  |  |  |  |  |  |  |  |  |  |  |  |  |  |  |  |  |  | LPS neutralization (LAL assay) (LPS): 76.5% |
| polymyxin B [PMB] |  |  |  |  |  |  |  |  |  |  |  |  |  |  |  |  |  |  |  |  | BC displacement (LPS binding) (LPS (E. coli O111:B4)): 76.6% |
| CC[C@H](C)[C@H](NC(=O)CN)C(=O)NCC(=O)N[C@@H](C)C(=O)N[C@H](C(=O)N[C@@H](CC(C)C)C(=O)N[C@@H](CCCCN)C(=O)N[C@H](C(=O)N[C@@H](CC(C)C)C(=O)N[C@H](C(=O)N[C@H](C(=O)NCC(=O)N[C@@H](CC(C)C)C(=O)N1CCC[C@H]1C(=O)N[C@@H](C)C(=O)N[C@@H](CC(C)C)C(=O)N[C@H](C(=O)N[C@@H](CO)C(=O)N[C@@H](Cc1c[nH]c2ccccc12)C(=O)N[C@H](C(=O)N[C@@H](CCCCN)C(=O)N[C@@H](CCCNC(=N)N)C(=O)N[C@@H](CCCCN)C(=O)N[C@@H](CCCNC(=N)N)C(=O)N[C@@H](CCC(N)=O)C(=O)N[C@@H](CCC(N)=O)C(N)=O)[C@@H](C)CC)[C@@H](C)CC)[C@@H](C)O)[C@@H](C)O)C(C)C)C(C)C [Melittin, reference compound] |  |  |  |  |  |  |  |  |  |  |  |  |  |  |  |  |  |  |  |  | Minimal Inhibitory Concentration (MIC) (CRAB C8; CRAB C8): 4 µM; Minimal Inhibitory Concentration (MIC) (K. pneumoniae; K. pneumoniae, MH media): 32 µM; Minimal Inhibitory Concentration (MIC) (CRAB C1; CRAB C1): 4 µM; MIC (CRKP K2): 64 µM (≈ 182 µg/mL); MIC (CRKP K1): 64 µM (≈ 182 µg/mL); MIC (CRAB C5): 4 µM (≈ 11.4 µg/mL); MIC (CRAB C4): 4 µM (≈ 11.4 µg/mL); MIC (CRAB C3): 4 µM (≈ 11.4 µg/mL); MIC (CRAB C9): 4 µM (≈ 11.4 µg/mL); MIC (CRAB C10): 4 µM (≈ 11.4 µg/mL); MIC (CRAB C0 [2]): 4 µM (≈ 11.4 µg/mL); MIC (CRAB C6): 4 µM (≈ 11.4 µg/mL); MIC (CRAB C7): 4 µM (≈ 11.4 µg/mL); MIC (CRAB C2): 4 µM (≈ 11.4 µg/mL); Depolarization of intact CRAB (diSC3-5) (intact CRAB C0): 75.6%; MIC (A. baumannii): 4 µM (≈ 11.4 µg/mL); MIC (CREC E2): 8 µM (≈ 22.8 µg/mL); MIC (CREC E1): 8 µM (≈ 22.8 µg/mL); Increase of diSC3-5 fluorescence in CRAB spheroplasts (depolarization) (CRAB C0 spheroplasts): 67.9% |
